Experimental data published in article PMC11240139, “Exploring the antitumor potential of novel quinoline derivatives via tubulin polymerization inhibition in breast cancer; design, synthesis and molecular docking” (RSC Advances, 2024).

Assays:
Experiment in all cases: NCI-60 SRB cytotoxicity screen
Type in all cases: cell-based
IGROV1 (ovarian cancer) = conditions: Homo sapiens, IGROV-1; IGROV1, single dose 10 μM; read-out: growth inhibition (GI%)
OVCAR-5 (ovarian cancer) = conditions: Homo sapiens; OVCAR-5, single dose 10 μM; read-out: growth inhibition (GI%)
LOX IMVI (melanoma) = conditions: Homo sapiens, single dose 10 μM, read-out: growth inhibition (GI%)
SN12C (renal cancer) = conditions: Homo sapiens, single dose 10 μM, read-out: growth inhibition (GI%)
A498 (renal cancer) = conditions: Homo sapiens; A498, single dose 10 μM; read-out: growth inhibition (GI%)
[1] = tested on: NCI/ADR-RES (ovarian cancer); conditions: Homo sapiens, single dose 10 μM, read-out: growth inhibition (GI%)
T-47D (breast cancer) = conditions: Homo sapiens, T47D, single dose 10 μM, read-out: growth inhibition (GI%)
DU-145 (prostate cancer) = conditions: Homo sapiens; DU-145, single dose 10 μM; read-out: growth inhibition (GI%)
COLO 205 (colon cancer) = conditions: Homo sapiens; COLO 205, single dose 10 μM; read-out: growth inhibition (GI%)
SF-539 (CNS cancer) = conditions: Homo sapiens; SF-539, single dose 10 μM; read-out: growth inhibition (GI%)
SNB-19 (CNS cancer) = conditions: Homo sapiens; SNB-19, single dose 10 μM; read-out: growth inhibition (GI%)
HS 578T (breast cancer) = conditions: Homo sapiens, single dose 10 μM, read-out: growth inhibition (GI%)
U251 (CNS cancer) = conditions: Homo sapiens, U-251; U251, single dose 10 μM; read-out: growth inhibition (GI%)
MOLT-4 (leukemia) = conditions: Homo sapiens; MOLT-4, single dose 10 μM; read-out: growth inhibition (GI%)
UO-31 (renal cancer) = conditions: Homo sapiens; UO-31, single dose 10 μM; read-out: growth inhibition (GI%)
HCT-116 (colon cancer) = conditions: Homo sapiens; HCT-116, single dose 10 μM; read-out: growth inhibition (GI%)
SNB-75 (CNS cancer) = conditions: Homo sapiens, SNB-75, SNB-75, single dose 10 μM; read-out: growth inhibition (GI%)
OVCAR-3 (ovarian cancer) = conditions: Homo sapiens; OVCAR-3, single dose 10 μM; read-out: growth inhibition (GI%)
CCRF-CEM (leukemia) = conditions: Homo sapiens, single dose 10 μM, read-out: growth inhibition (GI%)
SK-MEL-28 (melanoma) = conditions: Homo sapiens; SK-MEL-28, single dose 10 μM; read-out: growth inhibition (GI%)
[2] = tested on: MDA-MB-468 (breast cancer); conditions: Homo sapiens; MDA-MB-468, single dose 10 μM; read-out: growth inhibition (GI%)
Procedure: The cytotoxic activity of the synthesized quinoline derivatives was determined by the national cancer institute (NCI, Bethesda, Maryland, USA) against 60 different cancer cell lines at a single high dose (10^−5 M) in the full NCI 60 cell panel using the sulforhodamine B assay for cell viability evaluation. In summary, 5 × 10^3 cells were in 96-well plate and incubated in complete media for 24 h. Cells were treated with 100 μL of media containing each newly synthesized compound. After drug exposure, cells were fixed by replacing media with 150 μL of 10% TCA and incubated at 4 °C for 1 h. The TCA solution was removed, and the cells were washed 5 times with distilled water. Aliquots of 70 μL SRB solution (0.4% w/v) were added and incubated in a dark place at room temperature for 10 min. The plates were washed 3 times with 1% acetic acid and allowed to air-dry overnight. Then, 150 μL of TRIS (10 mM) was added to dissolve protein-bound SRB stain. The absorbance was measured at 540 nm.% Cytotoxicity = [1 − (AVx/AVNC)] × 100where AVx denotes the average absorbance of the sample well and AVNC denotes the average absorbance of the negative control.
The methodology of the NCI anticancer screening has been described in details at (http://www.dtp.nci.nih.gov). The anticancer assay was performed in full NCI 60 cell lines derived from nine tumor subpanels, including leukemia, lung, colon, CNS, melanoma, ovarian, renal, prostate, and breast cancer cell lines.
The cell lines were first cultured for 48 h, after being exposed to a single dosage of the compound. Using the protein-binding dye sulforhodamine B dye, cell proliferation and viability were evaluated (SRB assay). The results were presented for each chemical as GI%. Compound that met NCI criteria for substantial activity were further evaluated using a five-dose experiment. The NCI60 cell lines were treated with the chemicals in this assay at five different concentration levels (0.01, 0.1, 1, 10, and 100 μM).

HT29 (colon cancer) = conditions: Homo sapiens, HT-29; HT29, single dose 10 μM; read-out: growth inhibition (GI%)
[3] = tested on: MDA-MB-231/ATCC (breast cancer); conditions: Homo sapiens, MDA-MB-231, read-out: growth inhibition (GI%)
K-562 (leukemia) = conditions: Homo sapiens; K-652 [sic], single dose 10 μM; read-out: growth inhibition (GI%)
[4] = tested on: NCI-H322M (non-small cell lung cancer); conditions: Homo sapiens, single dose 10 μM, read-out: growth inhibition (GI%)
[5] = tested on: NCI-H226 (non-small cell lung cancer); conditions: NCI-H226, single dose 10 μM; for inhibition at 10 µM: Homo sapiens, read-out: growth inhibition (GI%)
OVCAR-8 (ovarian cancer) = conditions: Homo sapiens; OVCAR-8, single dose 10 μM; read-out: growth inhibition (GI%)
M14 (melanoma) = conditions: Homo sapiens; M14, single dose 10 μM; read-out: growth inhibition (GI%)
SF-268 (CNS cancer) = conditions: Homo sapiens; SF-268, single dose 10 μM; read-out: growth inhibition (GI%)
[6] = tested on: NCI-H23 (non-small cell lung cancer); conditions: Homo sapiens; NCI-H23, single dose 10 μM; read-out: growth inhibition (GI%)

Row | SMILES | inhibition at 10 µM (IGROV1 (ovarian cancer)) | inhibition at 10 µM (OVCAR-5 (ovarian cancer)) | inhibition at 10 µM (LOX IMVI (melanoma)) | inhibition at 10 µM (SN12C (renal cancer)) | inhibition at 10 µM (A498 (renal cancer)) | inhibition at 10 µM [1] | inhibition at 10 µM (T-47D (breast cancer)) | inhibition at 10 µM (DU-145 (prostate cancer)) | inhibition at 10 µM (COLO 205 (colon cancer)) | inhibition at 10 µM (SF-539 (CNS cancer)) | inhibition at 10 µM (SNB-19 (CNS cancer)) | inhibition at 10 µM (HS 578T (breast cancer)) | inhibition at 10 µM (U251 (CNS cancer)) | inhibition at 10 µM (MOLT-4 (leukemia)) | inhibition at 10 µM (UO-31 (renal cancer)) | inhibition at 10 µM (HCT-116 (colon cancer)) | inhibition at 10 µM (SNB-75 (CNS cancer)) | inhibition at 10 µM (OVCAR-3 (ovarian cancer)) | inhibition at 10 µM (CCRF-CEM (leukemia)) | inhibition at 10 µM [2] | further results
1 | CCc1cccc2cc(-c3cc(-c4cc(OC)c(OC)c(OC)c4)[nH]c(=S)c3C#N)c(Cl)nc12 [Compound 5c, 4-(2-Chloro-8-ethylquinolin-3-yl)-2-thioxo-6-(3,4,5-trimethoxyphenyl)-1,2-dihydropyridine-3-carbonitrile] | 33.4% | < 10% | 38.3% | 39.7% | 18.8% | 28.5% | 60.6% | 32.3% | 12.7% | 29.7% | 39.1% | 32.7% | 31% | 61.2% | 45.2% | 27.1% | < 10% | 16.9% | 57.6% | 50.5% | inhibition at 10 µM (SK-MEL-28 (melanoma)): < 10%; inhibition at 10 µM (HT29 (colon cancer)): 20.4%; inhibition at 10 µM [3]: 52.5%; inhibition at 10 µM (K-562 (leukemia)): 33.9%; inhibition at 10 µM [4]: 34%; inhibition at 10 µM [5]: 63.3%; inhibition at 10 µM (OVCAR-8 (ovarian cancer)): 36.7%; inhibition at 10 µM (M14 (melanoma)): 31.2%; inhibition at 10 µM (SF-268 (CNS cancer)): 31.7%; inhibition at 10 µM [6]: 33.7%
2 | CCc1cccc2cc(C=CC(=O)c3ccc(OC)c(OC)c3)c(Cl)nc12 [Compound 3b, 3-(2-Chloro-8-ethylquinolin-3-yl)-1-(3,4-dimethoxyphenyl)prop-2-en-1-one] | < 10% | 12.5% | 43.4% | 23.7% | < 10% | 45.8% | 57.9% | 15.8% | 22.4% | 99.4% | 54.4% | < 10% | 65.2% | 49.2% | 41.8% | 62.8% | > 100% | 31.7% | 65% | 39.8% | inhibition at 10 µM (SK-MEL-28 (melanoma)): < 10%; inhibition at 10 µM (HT29 (colon cancer)): 26.9%; inhibition at 10 µM [3]: 29.3%; inhibition at 10 µM (K-562 (leukemia)): 55.7%; inhibition at 10 µM [4]: 22.4%; inhibition at 10 µM [5]: > 100%; growth inhibition (GI%) [5]: lethal effect; inhibition at 10 µM (OVCAR-8 (ovarian cancer)): 57.8%; inhibition at 10 µM (M14 (melanoma)): < 10%; inhibition at 10 µM (SF-268 (CNS cancer)): < 10%; inhibition at 10 µM [6]: 20.2%
3 | CCc1cccc2cc(C3C=C(c4cc(OC)c(OC)c(OC)c4)NC(=S)N3)c(Cl)nc12 (stereo not drawn) [Compound 6c, 4-(2-Chloro-8-ethylquinolin-3-yl)-6-(3,4,5-trimethoxyphenyl)-3,4-dihydropyrimidine-2(1H)-thione] | 14.3% | < 10% | 33.3% | 21.7% | 11.6% | 34% | 48.6% | 21.7% | 24.4% | 30.3% | 23.4% | 39.6% | 26.6% | 67.7% | 67.7% | 41.2% | 23.2% | 14.2% | 32.9% | 40.5% | inhibition at 10 µM (HT29 (colon cancer)): 36.4%; inhibition at 10 µM [3]: 46.1%; inhibition at 10 µM (K-562 (leukemia)): 44.6%; inhibition at 10 µM [4]: 18.3%; inhibition at 10 µM [5]: 58%; inhibition at 10 µM (OVCAR-8 (ovarian cancer)): 12.2%; inhibition at 10 µM (M14 (melanoma)): 30.1%; inhibition at 10 µM (SF-268 (CNS cancer)): 42.4%; inhibition at 10 µM [6]: 25.8%
